13 substances from patent publication US20230340060A1, “NOVEL MEANS TO PREDICT AND MANIPULATE NMDA RECEPTOR-MEDIATED TOXICITY” (FundaMental Pharma GmbH, priority 2020, published 2023) can be followed below.

For one test, the system named is HEK293 cells. The experiment in a line: Luminescent Cytotoxicity Assay (CytoTox-Glo) after transfection with GluN1 and GluN2A or GluN2B constructs. The class given is cell-based, human. The conditions noted are these: for cell death: HEK293 cells; for susceptibility to NMDA receptor mediated toxicity: subject carrying the variant, based on HEK293 cell death, with GluN1, 48 h after transfection. As to the method: HEK293 Cell Culture HEK293 cells were cultured in Dulbecco's Modified Eagle Medium (DMEM, Gibco™, 41965-039) supplement with 10% Fetal Bovine Serum (FBS, Gibco™, 10270), 1% Sodium Pyruvate (Gibco™, 11360070), 1% MEM NEAA (Gibco™, 11140035) and 0.5% Penicillin-Streptomycin (P-S; Sigma, P0781) and Passage15-25 were used for experiments.
To test the cytotoxicity of compounds according to the present invention, HEK293 cells (70-80% confluent) were transfected 24 hours after plating with expression vectors for both GluN1 and GluN2A or GluN2B, respectively (1:1; 2 μg plasmids in total per 6-cm dishes) with Lipofectamine 2000 according to manufacturer's instructions. The relative number of dead cells in the population at the indicated time points after transfection was measured with the CytoTox-Glo™ Cytotoxicity assay (Promega, G9290) according to manufacturer's instruction with minor modification. Briefly, 10% of total medium were mixed with 10 μL AAF-amino luciferin to reach a final volume at 200 μL with water, the dead cell relative luminescence units (DRLU) was measured by GloMax (Promega) in a 96 well white bottom polystyrene microplate (Corning Costar®, 3912). After all the measurements, lysis reagents have been added to the cells and 10% of lysate was used for the total cell relative luminescence units (TRLU) measurement. Cell death was calculated by the following equations: […]
In order to investigate the role of GluN2A and GluN2B in NMDA receptor mediated toxicity, the inventors have built constructs and transfected the plasmids into HEK293 cells.
In a next step, the inventors tried to assess the importance of the isoleucine and other amino acid residues in the inventive sequence motif. The inventors have built constructs containing above-mentioned mutants and transfected the plasmids into HEK293 cells.
In view of the results obtained for the GluN2A and GluN2B mutants of the inventive sequence motif in example 3, the inventors further tested the impact of naturally occurring variations in said sequence motif in the human gene pool on susceptibility towards NMDA receptor mediated toxicity. The inventors have built constructs containing above-mentioned mutants selected from the SNP database from NCBI (for GRIN2A, https://www.ncbi.nlm.nih.gov/projects/SNP/snp_ref.cgi?showRare=on&chooseRs=coding&g o=Go&locusId=2903, and for GRIN2B, https://www.ncbi.nlm.nih.gov/projects/SNP/snp_ref.cgi?showRare=on&chooseRs=coding&g o=Go&locusId=2904) and transfected the plasmids into HEK293 cells.

Test [1] concerns primary mouse hippocampal neurons. As to the kind of experiment: Neuronal death assessment after rAAV-mediated expression of polypeptides. The class given is cell-based. Particulars: rAAV infection on DIV3, fixed on DIV17, Hoechst staining, polypeptide fused to HA tag and GPI anchor. Here is the method:
Primary mouse hippocampal were prepared and maintained as known to the skilled person. Briefly, hippocampi from P0 C57Bl/6N mice were dissociated and plated at a density of […] in Growth Medium (GM), consisting of Neurobasal A medium (Gibco™, 10888022), 2% serum free B27™ Supplement (Gibco™, 17504044), 1% rat serum (Biowest, S2150), 0.5 mM L-Glutamine (Sigma, G7513) and 0.5% P-S. Cytosine P-D-arabinofuranoside (AraC; Sigma, C1768; 2.8 μM) was added on DIV3 to prevent the proliferation of glial cells. From DIV8, half of the medium was replaced by GM without Rat serum every 48 h until being used for experiments. […]
Neurons were fixed in 4% paraformaldehyde with 4% sucrose in PBS for 15 min followed with Hoechst staining. […] Cell death is analyzed by Cell Profiler and Cell Analyzer software.
In a next step, the inventors assessed whether the inventive sequence motif on its own is sufficient to induce NMDA receptor mediated toxicity. […] Neurons were fixed on DIV17, stained with Hoechst and cell death was quantified.

The mark [2] stands for this setting: combined expression with GluN1, 48 h after transfection.

“GluN1: wild type rat GluN1 (UniProtKB-P35439), control when expressed alone”: in the test with HEK293 cells (transfected alone (control), 48 h after transfection), the cell death result is “neither GFP nor GluN1 alone (both serving as controls) could induce cell death”.
“GluN2A (I867M): GluN2A with naturally occurring substitution I867M”: the cell death entry in the test on HEK293 cells (setting [2]) was “also toxic”. The “susceptibility to NMDA receptor mediated toxicity” value (from here on “susceptibility”) in the test on HEK293 cells is listed as “increased susceptibility”.
With “GluN2A (I876N): GluN2A with naturally occurring substitution I876N”, in the test with HEK293 cells (setting [2]), the cell death result is “also toxic”. Besides, the “susceptibility” value in the test with HEK293 cells was “increased susceptibility”; with HEK293 cells (listed as SEQ ID NO:6) it was “significantly increased susceptibility”.
As to “GluN2A (S869R): GluN2A with naturally occurring substitution S869R”, in the test on HEK293 cells (setting [2]), the cell death result is “also toxic”. For the same substance, in the test on HEK293 cells, the “susceptibility” value is given as “regular susceptibility”.
On to “GluN2A-13A3: GluN2A with substitutions I863A, I867A and I871A (SEQ ID NO:3)”, for which the cell death result in the test with HEK293 cells (setting [2]) is “still show some toxic properties”; with HEK293 cells (combined expression with GluN1, 48 h after transfection, listed as GluN2A SEQ ID NO:3) it was “at least reduced levels of toxicity”.
Take “GluN2A-I2A2: GluN2A with substitutions I867A and I871A (SEQ ID NO:2)”: the cell death result in the test on HEK293 cells (setting [2]) is recorded as “still show some toxic properties”; in the test on HEK293 cells (combined expression with GluN1, 48 h after transfection, listed as GluN2A SEQ ID NO:2), “at least reduced levels of toxicity”.
On to “GluN2A-IAHA: GluN2A with substitutions I867A, I871A and H875A (SEQ ID NO:21)”, for which the cell death entry with HEK293 cells (setting [2]) is listed as “at least reduced levels of toxicity”.
With “GluN2A: wild type rat GluN2A (UniProtKB-Q00959) comprising canonical sequence SEQ ID NO:1”, the cell death result with HEK293 cells (setting [2]) is recorded as “induced cell death”. For the same substance, the “susceptibility” value in the test on HEK293 cells is “regular susceptibility”.
Regarding “GluN2B (H873R): GluN2B with naturally occurring substitution H873R”, in the test on HEK293 cells, the “susceptibility” value is on record as “decreased susceptibility”.
With “GluN2B-12A2: GluN2B with substitutions I868A and I872A (SEQ ID NO:21)”, in the test with HEK293 cells (setting [2]), the cell death result is on record as “essentially abrogated any toxic effect”.
Still for that read-out and setting: for “GluN2B-I2A2AH: GluN2B with substitutions I868A, I872A and A876H” the value was “essentially abrogated any toxic effect”.
For the substance “GluN2B: wild type rat GluN2B (UniProtKB-Q00960) comprising canonical sequence SEQ ID NO:7”, the cell death entry in the test with HEK293 cells (setting [2]) is recorded as “induced cell death”. Further, in the test with HEK293 cells, the “susceptibility” value is recorded as “regular susceptibility”.
For “SEQ ID NO:10: mutant GluN2A derived polypeptide comprising SEQ ID NO:2, fused to HA tag and GPI anchor (TGVCSDRPGLLFSISRGAYSCAHGVHIEEKKKS; GluN2A core motif mutated with 2 Ile residues mutated to Ala residues plus flanking regions)”, the cell death result is listed as “not able to induce cell death” in test [1] and “greatly reduces the cell death levels to approx. the levels of untransfected control” in test [1] (listed as SEQ ID NO: 10).
